# In ChEMBL document CHEMBL5543166, “Development of Benziodarone Analogues with Enhanced Potency for Selective Binding to Transthyretin in Human Plasma” (J Med Chem, 2024):
# Columns and labels:
# [1] = AUC (0 to 8 hrs) in male Sprague-Dawley rat at 0.1 mg/kg, po measured upto 8 hrs by LC-MS/MS analysis; format: ADME, organism-based; details: in vivo
# [2] = Total clearance in male Sprague-Dawley rat at 0.1 mg/kg, iv measured upto 8 hrs by LC-MS/MS analysis; format: ADME, organism-based; details: in vivo
# [3] = Cmax in male Sprague-Dawley rat at 0.1 mg/kg, po measured upto 8 hrs by LC-MS/MS analysis; details: in vivo
# [4] = Tmax in male Sprague-Dawley rat at 0.1 mg/kg, po measured […] by LC-MS/MS analysis; format: ADME, organism-based; details: in vivo
# Albumin = Albumin (Homo sapiens, UniProt P02768); experiment: Binding affinity to serum albumin in human plasma; format: ADME, cell-free
# Chain of Albumin (P02768 whole entry): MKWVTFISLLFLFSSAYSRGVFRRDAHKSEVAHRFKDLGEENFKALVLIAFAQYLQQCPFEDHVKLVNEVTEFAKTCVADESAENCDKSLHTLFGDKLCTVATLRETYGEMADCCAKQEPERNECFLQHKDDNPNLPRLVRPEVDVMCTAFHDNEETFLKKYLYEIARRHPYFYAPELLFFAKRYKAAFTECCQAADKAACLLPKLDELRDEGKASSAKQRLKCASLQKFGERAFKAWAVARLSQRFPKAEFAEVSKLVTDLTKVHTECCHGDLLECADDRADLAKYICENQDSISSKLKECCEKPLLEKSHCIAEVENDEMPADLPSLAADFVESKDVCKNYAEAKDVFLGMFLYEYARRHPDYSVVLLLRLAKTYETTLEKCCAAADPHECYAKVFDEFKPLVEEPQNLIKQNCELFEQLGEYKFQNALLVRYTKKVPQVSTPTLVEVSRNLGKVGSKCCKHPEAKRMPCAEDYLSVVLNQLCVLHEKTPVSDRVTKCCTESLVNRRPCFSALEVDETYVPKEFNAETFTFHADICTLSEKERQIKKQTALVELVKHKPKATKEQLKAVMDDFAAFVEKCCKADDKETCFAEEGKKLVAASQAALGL
# [5] = Oral bioavailability in male Sprague-Dawley rat at 0.1 mg/kg measured upto 8 hrs by LC-MS/MS analysis; format: ADME, organism-based; details: in vivo
# [6] = Volume of distribution at steady state in male Sprague-Dawley rat at 0.1 mg/kg, iv measured upto 8 hrs by LC-MS/MS analysis; format: ADME, organism-based; details: in vivo
# [7] = C0 in male Sprague-Dawley rat at 0.1 mg/kg, iv measured upto 8 hrs by LC-MS/MS analysis; details: in vivo
# [8] = AUC (0 to 8 hrs) in male Sprague-Dawley rat at 0.1 mg/kg, iv measured upto 8 hrs by LC-MS/MS analysis; format: ADME, organism-based; details: in vivo
# [9] = Solubility of compound at pH 1.2 incubated for 4 hrs by HPLC or LC-MS/MS analysis; format: physicochemical; details: buffer, pH 1.2, 4 h
# [10] = Plasma protein binding in rat assessed as unbound fraction at 1 uM incubated for 6 hrs by LC/MS/MS based equilibrium dialysis method; format: ADME, cell-free
# [11] = Solubility of compound at pH 6.8 incubated for 4 hrs by HPLC or LC-MS/MS analysis; format: physicochemical; details: buffer, pH 6.8, 4 h
# Transthyretin [12] = target: Transthyretin (Homo sapiens, UniProt P02766, V50M); experiment: Binding affinity to TTR V30M mutant (unknown origin) assessed as dissociation constant by ITC analysis
# Transthyretin [13] = target: Transthyretin (Homo sapiens, UniProt P02766); experiment: Binding affinity to TTR in human plasma assessed as target occupancy incubated for 6 hrs in presence of E)-S-phenyl 3-(4-hydroxy-3,5-dimethyistyryl)benzothioate by fluorescence based competitive binding assay; format: cell-free
# [14] = pampa, 4 h, 500 µM
Structure (SMILES),AUC [1] [ng·h/mL],CL [2] [mL/min/kg],Cmax [3] [ng/mL],Tmax [4] [h],Activity (Albumin),bioavailability [5] [%],Vdss [6] [L/kg],C0 at 8 h [7] [ng/mL],AUC [8] [ng·h/mL],solubility [9] [µM],Fu [10] [%],solubility [11] [µM],Kd (Transthyretin [12]) [µM],EC50 (Transthyretin [13]) [µM],permeability [14]
O=C(O)c1ccc2nc(-c3cc(Cl)cc(Cl)c3)oc2c1,1500,0.0993,235,4,Active,63.5,0.311,519,2363,,,,,,
CCc1oc2cccc(Cl)c2c1C(=O)c1cc(I)c(O)c(I)c1,2524,0.343,395,4,,,0.112,1720,3726,< 0.01,< 0.01,> 100,,,
CCc1oc2cccc(I)c2c1C(=O)c1cc(I)c(O)c(I)c1,1489,0.405,240,4,Active,,0.153,1540,2961,< 0.02,< 0.01,> 100,,,
CCc1oc2cccc(C)c2c1C(=O)c1cc(I)c(O)c(I)c1,1918,0.44,303,4,,,0.123,1640,3102,< 0.01,< 0.01,> 100,,,
CCc1oc2c(Cl)ccc(Cl)c2c1C(=O)c1cc(I)c(O)c(I)c1,350,0.662,77,4,,,0.269,1340,1746,< 0.02,< 0.01,89.5,,,
CCc1oc2cccc(Br)c2c1C(=O)c1cc(I)c(O)c(I)c1,2476,0.343,390,4,,,0.113,1740,3708,0.054,< 0.01,> 100,,,
CCc1oc2ccccc2c1C(=O)c1cc(I)c(O)c(I)c1 [BENZIODARONE],,,,,Active,,,,,,,,0.078,8.9,
COCCc1ccc(OCC(O)CNC(C)C)cc1 (stereo not given) [METOPROLOL],,,,,,,,,,,,,,,1.8 10^-6 cm/s
O=C(O)c1cc(/N=N/c2ccc(S(=O)(=O)Nc3ccccn3)cc2)ccc1O [SULFASALAZINE],,,,,,,,,,,,,,,0.038 10^-6 cm/s
